This is an account of results in patent US5856175A, “Device for detecting microorganisms” (priority 1996, dated 1999).

Format in all cases: cell-based
One assay concerns Proteus mirabilis 33583. The assay is described as follows: Pattern of inhibition using silicone-emulsion CO2 sensors (Table 3). Particulars: 5.4 mcg; 4 h, 37° C.; 5×10^7 CFU/ml. An excerpt: (§1) Microbial identification using the described CO2 sensors can also be based on the principle of growth inhibition. This system differs from the classical biochemical identification systems, as identification is based on selective growth inhibition by inhibitory agents, such as dyes, antibiotics, and other substances. Once again, the production of CO2 is the measure of growth. The growth pattern produced in the presence of these inhibitory agents identifies the species of the test microorganism. The amount of growth is compared with a growth control well that contains no inhibitor. A profile is derived using a two-stage quadratic discriminate analysis based on the results derived from the battery of inhibitory agents.
(§2) Microtiter plates (96 flat bottom wells) containing 0.05% xylenol blue silicone-emulsion sensors were filled with 100 microliters of microbial growth medium containing no inhibitors (growth control wells) and eighteen different dyes, antibiotics, and other inhibitory substances. Final concentrations of the inhibitors were achieved after addition of 100 microliters of inoculum (final inoculum of 5×10^7 CFU/ml) of the representative microorganisms.
(§3) After inoculating the microtiter tray, it was sealed with a pressure sensitive plastic plate sealer and initial readings were taken with a reflectance reader. The plate was then placed into a 37° C. incubator. After four hours incubation, the plate was removed and final reflectance readings were taken.

The test system of assay [1] is Alcaligenes odorans 33585. The description is as above. Particulars: 5.4 mcg; 4 h, 37° C.; 5×10^7 CFU/ml.
Excerpt: as §1, §2, §3

For another assay, the system named is Escherichia coli 33582. The assay is described as above. Particulars: 5.4 mcg; 4 h, 37° C.; 5×10^7 CFU/ml.
Excerpt: as §1, §2, §3

Assay [2] relates to Pseudomonas aeruginosa 33584. The description is as above. The note with it: 5.4 mcg; 4 h, 37° C.; 5×10^7 CFU/ml.
Excerpt: as §1, §2, §3

In the next assay the test system is Escherichia coli 29194. Briefly: Antimicrobial susceptibility pattern using silicone-emulsion CO2 sensors (Table 4).
Excerpt: (§4) Microtiter plates (96 flat bottom wells) containing 0.05% Xylenol blue silicone-emulsion sensors on the bottom were filled with 100 microliters of microbial growth medium containing no antibiotics (growth control wells) and nine different classes of antibiotics. Final concentrations of the antibiotics were achieved after addition of 100 microliters of inoculum (final inoculum of 5×10^7 CFU/ml) of the representative microorganisms. The concentrations of antibiotics used represent those used in determining if the test organism is sensitive, intermediate, or resistant to a particular antibiotic.
as §3
(§5) The results in Table 4 show a pattern of growth, no growth, or intermediate growth of the four test organisms with the nine classes of antibiotics. This is indicative of the type of susceptibility of the organisms to the antibiotics. The organisms tested vary in their susceptibility pattern because of differences in their physiological makeup.

In assay [3] the test system is Staphylococcus aureus 25923. Described as above.
Excerpt: as §4, §3, §5

The subject of assay [4] is Pseudomonas aeruginosa 27853. Described as above.
Excerpt: as §4, §3, §5

In assay [5] the test system is Streptococcus faecalis 29212. The assay is described as above.
Excerpt: as §4, §3, §5

Assay [6] concerns Escherichia coli (ATCC number 11775). The assay is described as follows: Carbon source utilization in carbon dioxide sensor plates (Example 6). The note with it: 0.5% bromosuccinic acid. On the procedure:
(§6) 50 ml Kodak Universal Indicator was evaporated to dryness and resuspended in 2 ml HPCL grade isopropanol. 240 mg of phenolphthalein, sodium salt, dissolved in 2 ml of water was added to 1 ml of the concentrated Universal Indicator solution. 150 microliters of CAPS buffer (3-{cyclohexlamino}-1-propanesulfonic acid), pH 10.4, 500 mM was mixed with the phenolphthalein/Universal Indicator solution. This solution was added to 10 grams of GE RTV 615 A silicone that had been degassed for approximately 15 minutes. The silicone and indicator emulsion was mixed by hand stirring. 0.1 grams of white silicone pigment and 2 grams of GE RTV 615 B was added to the mixture. The mixture was hand mixed and degassed for approximately 5 minutes. The emulsion was transferred into a pressurized syringe dispenser fitted to an "air brush" sprayer and sprayed into a polystyrene 24 well plate that had previously been sprayed with 2 coats of GE silicone primer SS 4120. Enough of the indicator/silicone emulsion was sprayed into the wells to coat the bottom surface. The plate was then placed in a humidified oven and cured at 50° C. overnight. This spraying process was repeated on 3 consecutive days for a total of 3 coatings to the wells.
(§7) Two organisms, Escherichia coli (ATCC number 11775) and Pseudomonas aeruginosa (ATCC number 1014), both type strains, were grown overnight (17 hours) in a complex medium as described in Example 3 C, at 37° C., with shaking. The organisms were harvested, spun down at 11950-X-g, at 4° C. for 20 minutes. The supernatant was poured off and the organisms were resuspended in 0.9% sterile saline to an OD600 =5.0.
(§8) Each well of the prepared microtiter plate contained 1 ml of one of the following three media:
(§9) a) a minimal medium buffered with 50 mM Hepes buffer, pH 7.2, containing no carbon source (the negative control);
(§10) b) the same medium as the negative control except that it contained 0.5% bromosuccinic acid; and
(§11) c) an undefined medium Trypticase soy yeast extract medium, buffered with 50 mM Hepes, pH 7.2 (the positive control).
(§12) Twenty microliters of each prepared organism was added to duplicate wells of each type of media.
(§13) The wells were sealed with cork stoppers and the plate was incubated at 37° C. Color changes of the sensor on the bottom of the plate were monitored by eye over a 6 hour period. After approximately 4 hours, two distinct patterns could be seen. […] The positive control wells for E. coli changed from purple to green to yellow to orange, indicating a pH change of the sensor from 10 to approximately 6. The positive control well for P. aeruginosa changed from purple to green to yellow (a pH change of the sensor from 10 to approximately 7). The wells with the bromosuccinic acid medium gave the most distinction between the two organisms. […]

In assay [7] the test system is Pseudomonas aeruginosa (ATCC number 1014). Described as above. The note with it: 0.5% bromosuccinic acid. On the procedure:
as §6, §7, §8, §9, §10, §11, §12, §13

The mark [8] stands for this setting: Escherichia coli, 29194, 4 h, read-out: Percent growth as compared to a growth control without antibiotics.
The mark [9] stands for this setting: Staphylococcus aureus, 25923, 4 h, read-out: Percent growth as compared to a growth control without antibiotics.
[10] abbreviates: Pseudomonas aeruginosa, 27853, 4 h, read-out: Percent growth as compared to a growth control without antibiotics.
Setting [11] is: Enterococcus faecalis, 29212, 4 h, read-out: Percent growth as compared to a growth control without antibiotics.
Where [12] appears, read: 0.2 units, 4 h, 37° C., 5×10^7 CFU/ml.

Take `NC[C@H]1O[C@H](O[C@H]2[C@H](O)[C@@H](O[C@H]3O[C@H](CO)[C@@H](O)[C@H](N)[C@H]3O)[C@H](N)C[C@@H]2N)[C@H](O)[C@@H](O)[C@@H]1O` [Kanamycin]: the “Percent growth as compared to a growth control without antibiotics” value in the assay on Proteus mirabilis 33583 was 44%; in assay [1] it was 95%; with Escherichia coli 33582, 66%; in [2], 105%. In addition, the activity at 22 µg/mL with Escherichia coli 29194 (setting [8]) stood at 91%; in assay [3] (setting [9]), 13%; in assay [4] (setting [10]) it was 72%; in assay [5] (setting [11]) it was 95%.
With `O=C(O)CC(Br)C(=O)O` (stereo not shown) [bromosuccinic acid], the “Utilization as carbon source to produce CO2” value was “able to utilize this carbon source only slightly to produce CO2” in assay [6] and “preferred carbon source” in assay [7]. Further, the “pH of the sensor reached (change from 10)” value was 8.5 pH in assay [6] (four hours, 37° C., by eye) and “approximately 6 pH” in assay [7] (four hours, 37° C., by eye).
With `CC1(C)S[C@@H]2[C@H](NC(=O)Cc3ccccc3)C(=O)N2[C@H]1C(=O)O` [Penicillin G], the “Percent growth as compared to a growth control without antibiotics” value in the assay on Escherichia coli 29194 (setting [12]) stood at 103%; in assay [3] (setting [12]) it was 45%; in [4] (setting [12]), 149%; in assay [5] (setting [12]), 108%.
On to `CN[C@H](CC(C)C)C(=O)N[C@H]1C(=O)N[C@@H](CC(N)=O)C(=O)N[C@H]2C(=O)N[C@H]3C(=O)N[C@H](C(=O)N[C@H](C(=O)O)c4cc(O)cc(O)c4-c4cc3ccc4O)[C@H](O)c3ccc(c(Cl)c3)Oc3cc2cc(c3O[C@@H]2O[C@H](CO)[C@@H](O)[C@H](O)[C@H]2O[C@H]2C[C@](C)(N)[C@H](O)[C@H](C)O2)Oc2ccc(cc2Cl)[C@H]1O` [Vancomycin], for which the activity at 10 µg/mL worked out at 94% in the assay on Escherichia coli 29194 (setting [8]), 22% in assay [3] (setting [9]), 106% in assay [4] (setting [10]) and 15% in [5] (setting [11]).
As to `CN(C)C1C(=O)C(C(N)=O)=C(O)C2(O)C(=O)C3=C(O)c4c(O)cccc4C(C)(O)C3CC12` (stereo not shown) [Tetracycline], the activity at 0.5 µg/mL in the assay on Escherichia coli 29194 (setting [8]) was determined as 76%; in [3] (setting [9]) it was 15%; in assay [4] (setting [10]), 120%; in assay [5] (setting [11]) it was 109%.
On to `O=C(N[C@H](CO)[C@H](O)c1ccc([N+](=O)[O-])cc1)C(Cl)Cl` [Chloramphenicol], for which the activity at 4 µg/mL amounted to 14% in the assay with Escherichia coli 29194 (Escherichia coli, 29194, 4 mcg (per milliliter), 4 h, 37° C., 5×10^7 CFU/ml, read-out: Percent growth as compared to a growth control without antibiotics); 45% in assay [3] (setting [9]); 88% in assay [4] (setting [10]); 19% in assay [5] (setting [11]).
